Laboratory results published in patent US7947704B2, “2,4,6-phenyl-substituted cyclic ketoenols” (Bayer CropScience AG, priority 2004, dated 2011).

Experiments:
Format in all cases: in vivo
Summer barley = assay: Herbicidal action and safener action, post-emergence, container trials with cereal
Method: (§1) Herbicidal Action and Safener Action, Pre-emergence or Post-emergence
(§2) Seeds of rhizome pieces of monocotyledonous and dicotyledonous harmful plants and of crop plants are placed into sandy loam in pots made of peat, covered with soil and cultivated in a greenhouse under growth conditions. In the pre-emergence application, safener and herbicide are applied after sowing, the post-emergence treatment is carried out about two to three weeks after sowing, at the three-leaf stage of the test plants. The herbicide/safener active compound combinations according to the invention, formulated as emulsion concentrates, and in parallel experiments the correspondingly formulated individual active compounds are, at various dosages at a water application rate of 300 l/ha (converted), sprayed onto the surface of the soil when applied by the pre-emergence method and onto the green parts of the plants when applied by the post-emergence method. Pre-emergence evaluation is carried out after 2-4 weeks, post-emergence evaluation is carried out after 1-3 weeks. During this time, the test plants are kept in a greenhouse under optimum growth conditions. The effect of the preparation is scored visually in comparison to untreated controls.
(§3) Container trials with cereal in the greenhouse.
(§4) Safener and herbicide were applied successively to the plants by the post-emergence method (application rates: see Tables)

Winter wheat = assay: as above
Method: as §1, §2, §3, §4

Maize [1] = assay: Safener action after seed dressing, herbicide pre-emergence; settings: seed not safener-dressed
Method: Safener Action after Seed Dressing
The number of crop plant seeds needed for each safener application rate was calculated. Based on the weight of 100 seeds, sufficient seeds were weighed into screw top glass bottles approximately twice the volume of the seeds.
The prospective safeners were formulated as wettable powders or water-dispersible granules. These formulations were weighed out so that the required application rates (g of a.i./kg of seed) were obtained. The samples were added to the seeds in the bottles, followed by sufficient water to produce a seed dressing. The bottles were closed and then placed in an overhead shaker (set at medium speed for a period of up to one hour) so that the seeds were evenly coated with the seed dressing. The bottles were opened and the seeds were used in the pre-emergence tests.
Pre-emergence Application of Herbicides
The safener-treated seeds and untreated seeds as controls were sown in a sandy loam soil in round pots having a diameter of 7 to 13 cm and covered with approximately 0.5 to 1 cm of a 1:1 mix of sandy loam soil and sand. The herbicides, as liquid (for example emulsifiable concentrates) or dry (for example wettable powders) formulations, were diluted to the required concentrations using deionized water and applied to the soil surface using a track sprayer calibrated to deliver 300 liters of spray solution per hectare.
The pots were placed under good growing conditions in a greenhouse, and a visual assessment of the herbicidal effects was made 3 to 4 weeks after the application of the herbicide. The assessment was on a percentage basis in comparison to untreated control plants (0%=no damage, 100%=complete kill).
Herbicide application by the pre-emergence method, safener-dressed: […]

Myzus persicae = assay: Myzus Test (spray treatment); settings: 500 g/ha; after 5 d
Summer wheat = assay: Herbicidal action and safener action, post-emergence, container trials with cereal
Method: as §1, §2, §3, §4

Meloidogyne incognita = assay: Meloidogyne Test (gall formation on lettuce roots); settings: 20 ppm; after 14 d
Method: To produce a suitable preparation of active compound, 1 part by weight of active compound is mixed with the stated amounts of solvent and emulsifier, and the concentrate is diluted with water to the desired concentration.
Containers are filled with sand, solution of active compound, Meloidogyne incognita egg/larvae suspension and lettuce seeds. The lettuce seeds germinate and the plants develop. On the roots, galls are formed.
After the desired period of time, the nematicidal action is determined in % by gall formation. 100% means that no galls were found; 0% means that the number of galls on the treated plants corresponds to that of the untreated control.

Lolium = assay: Herbicidal pre-emergence action; settings: 320 g of a.i./ha
From the text: (§5) 1. Herbicidal Pre-emergence Action
(§6) Seeds of monocotyledonous and dicotyledonous weed and crop plants are placed into sandy loam in wood fibre pots and covered with soil. The test compounds, formulated in the form of wettable powders (WP), are then, in various dosages as aqueous suspension with a water application rate of 600 l/ha (converted), with 0.2% of wetting agent added, applied to the surface of the covering soil.
(§7) After the treatment, the pots are placed in a greenhouse and kept under good growth conditions for the test plants. The visual assessment of the emergence damage on the test plants is carried out after a trial period of 3 weeks by comparison with untreated controls (herbicidal effect in percent (%): 100% effect=the plants have died, 0% effect=like control plants).

Setaria = assay: Herbicidal pre-emergence action; settings: 320 g of a.i./ha
From the text: as §5, §6, §7

Maize [2] = assay: Herbicidal action and safener action, safener and herbicide applied successively pre-emergence
Method: as §1, §2
Safener and herbicide applied successively by the pre-emergence method.

[3] = application rate 25 g of a.i./ha
[4] = application rate 50 g of a.i./ha
[5] = application rate 100 g of a.i./ha
[6] = herbicide pre-emergence 25 g of a.i./ha
[7] = herbicide pre-emergence 50 g of a.i./ha

CCOC(=O)OC1=C(c2c(Cl)cc(C)cc2OC)C(=O)NC12CCC(OC)CC2 (stereo not drawn) [Example I-1-c-1]
Summer barley (%) observed damage (Summer barley; [3]): 10%
Summer barley (%) observed damage (Summer barley; [4]): 30%
Summer barley (%) observed damage (Summer barley; [5]): 60%
Winter wheat (%) observed damage (Winter wheat; [3]): 10%
Winter wheat (%) observed damage (Winter wheat; [4]): 30%
Maize (%) damage (Maize [1]; [6]): 35%

CCOC(=O)OC1=C(c2c(Cl)cc(C)cc2OC)C(=O)OC12CCCC2 [Ex. I-2-c-1]
kill rate against Myzus persicae (Myzus persicae): 100%

CCOC(=O)OC1=C(c2c(Cl)cc(C)cc2OC)C(=O)OC12CCOCC2 [Ex. I-2-c-3]
kill rate against Myzus persicae (Myzus persicae): 100%

COc1cc(C)cc(Cl)c1C1=C(OC(=O)C(C)C)C2(CCC(OC)CC2)NC1=O (stereo not drawn) [Example I-1-b-1]
Summer barley (%) observed damage (Summer barley; [3]): 30%
Summer barley (%) observed damage (Summer barley; [4]): 40%
Summer barley (%) observed damage (Summer barley; [5]): 55%

COc1cc(C)cc(Cl)c1C1=C(OC(=O)C(C)C)C2(CCCC2)OC1=O [Ex. I-2-b-1]
kill rate against Myzus persicae (Myzus persicae): 100%

COc1cc(C)cc(Cl)c1C1=C(O)C2(CCC(OC)CC2)OC1=O (stereo not drawn) [Ex. I-2-a-2]
kill rate against Myzus persicae (Myzus persicae): 100%

CCOc1cc(C)cc(Cl)c1C1=C(O)C2(CCC(OC)CC2)NC1=O (single isomer, unassigned) [Example I-1-a-5]
Summer barley (%) observed damage (Summer barley; [3]): 10%
Summer barley (%) observed damage (Summer barley; [4]): 20%
Summer barley (%) observed damage (Summer barley; [5]): 20%
Summer wheat (%) damage (Summer wheat; [3]): 20%
Summer wheat (%) damage (Summer wheat; [4]): 50%
Summer wheat (%) damage (Summer wheat; [5]): 60%
Winter wheat (%) observed damage (Winter wheat; [3]): 10%
Winter wheat (%) observed damage (Winter wheat; [4]): 30%
Winter wheat (%) observed damage (Winter wheat; [5]): 60%
Maize (%) damage (Maize [1]; [6]): 20%
Maize (%) damage (Maize [1]; [7]): 20%

COc1cc(C)cc(Cl)c1C1=C(O)C2(CCCC2)OC1=O [Ex. I-2-a-1]
kill rate against Myzus persicae (Myzus persicae): 100%

COc1cc(C)cc(Cl)c1C1=C(O)C2(CCC(OC)CC2)NC1=O (single isomer, unassigned) [Ex. I-1-a-3]
kill rate against Meloidogyne (Meloidogyne incognita): 100%
kill rate against Myzus persicae (Myzus persicae): 100%

COc1cc(C)cc(Cl)c1C1=C(O)C(C)(C)NC1=O [Ex. I-1-a-2]
kill rate against Lolium (Lolium): ≥ 80%
kill rate against Setaria (Setaria): ≥ 80%

COc1cc(C)cc(Cl)c1C1=C(OC(=O)C(C)C)C2(CCOCC2)OC1=O [Ex. I-2-b-3]
kill rate against Myzus persicae (Myzus persicae): 100%

CCOC(=O)OC1=C(c2c(Cl)cc(C)cc2OC)C(=O)OC12CCC(OC)CC2 (mixture of isomers) [Ex. I-2-c-2]
kill rate against Myzus persicae (Myzus persicae): 100%

CCCOc1cc(C)cc(Cl)c1C1=C(O)C2(CCC(OC)CC2)NC1=O (single isomer, unassigned) [Example I-1-a-4]
Summer barley (%) observed damage (Summer barley; [3]): 0%
Summer barley (%) observed damage (Summer barley; [4]): 10%
Summer barley (%) observed damage (Summer barley; [5]): 20%
Summer wheat (%) damage (Summer wheat; [3]): 20%
Summer wheat (%) damage (Summer wheat; [4]): 45%
Summer wheat (%) damage (Summer wheat; [5]): 60%
Winter wheat (%) observed damage (Winter wheat; [3]): 10%
Winter wheat (%) observed damage (Winter wheat; [4]): 30%
Winter wheat (%) observed damage (Winter wheat; [5]): 50%
Maize (%) damage (Maize [2]; [3]): 10%
Maize (%) damage (Maize [2]; [4]): 20%
Maize (%) damage (Maize [1]; [6]): 10%
Maize (%) damage (Maize [1]; [7]): 20%

COc1cc(C)cc(Cl)c1C1=C(O)C2(CCOCC2)NC1=O [Ex. I-1-a-1]
kill rate against Meloidogyne (Meloidogyne incognita): 100%
